These results are taken from patent US20120225909A1, “INDAZOLE ANALOG” (priority 2009, published 2012).

For series [1], the target named is T1, human α1A-adrenergic receptor (Homo sapiens, UniProt P35348).
T1 sequence (P35348 1-466): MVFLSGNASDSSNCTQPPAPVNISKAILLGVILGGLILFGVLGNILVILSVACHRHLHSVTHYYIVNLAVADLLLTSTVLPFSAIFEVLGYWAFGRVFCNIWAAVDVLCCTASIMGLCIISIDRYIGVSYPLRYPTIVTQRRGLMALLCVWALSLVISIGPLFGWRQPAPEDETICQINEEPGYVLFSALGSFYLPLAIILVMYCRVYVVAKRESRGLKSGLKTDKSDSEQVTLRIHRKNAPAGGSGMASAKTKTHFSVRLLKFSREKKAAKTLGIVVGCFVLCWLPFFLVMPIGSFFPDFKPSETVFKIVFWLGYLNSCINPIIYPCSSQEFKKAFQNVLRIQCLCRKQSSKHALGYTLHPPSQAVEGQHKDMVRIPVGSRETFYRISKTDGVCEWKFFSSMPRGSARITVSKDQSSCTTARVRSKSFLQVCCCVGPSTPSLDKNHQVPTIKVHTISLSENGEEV
In words: Test Case 4-A: human α1A-adrenergic receptor agonist activity (HEK293, Ca flux, Fura-2). To be noted: for α1A receptor I.A.: Test Case 4-A, maximum response of norepinephrine = 100%, Table 4; for Emax: HEK293, read-out: α1A receptor I.A. Also noted: expressed in transfected cells; host or cells: HEK293 cells, pcDNA3.1. In kind it is cell-based. The method, boiled down:
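Fura-2AM-loaded HEK293 cells transfected with human α1A were preincubated for 180 s. Compound (sample plate 10^−5 to 10^−12 M) was added after ~30 s of 340/380 nm excitation ratio reading (500 nm emission, 2-s intervals), followed by 270 s more reading. Ca flux is the peak height: maximum ratio after addition minus the pre-addition ratio.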

Series [2] has as its target T2, human β1-adrenergic receptor (Homo sapiens, UniProt P08588).
T2 construct: expressed in transfected cells; host or cells: CHO (Chinese hamster ovary) cells, pcDNA3
Nature of the series: Test Case 2-C: human β1-adrenergic receptor agonist activity (Cerep cellular functional GPCR, beta 1). To be noted: concentration 10 μM, isoproterenol = 100%. In kind it is cell-based. The text has this:
(§1) Measurement of Human β1-Adrenergic Receptor Agonist Activity

Series [3] concerns the target T3, human β3-adrenergic receptor (Homo sapiens, UniProt P13945).
T3 construct: A full-length human β3 gene is obtained from a human genomic library (made by Clontech) using this as the probe; expressed in transfected cells; host or cells: CHO (Chinese hamster ovary) cells, pcDNA3
Nature of the series: Test Case 1-B: human β3-adrenergic receptor agonist activity (cAMP-Screen, 96-well). In kind it is cell-based. To be noted: for EC50 / β3 receptor I.A.: Test Case 1-B; for EC50: CHO cells, cAMP; for β3 receptor I.A.: maximum response of isoproterenol = 100%; for Emax: 0.5 h, read-out: β3 receptor I.A. Summed up:
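CHO cells stably transfected with full-length human β3 gene, serum-starved 15 min, then exposed to serially diluted compound in Ham's F-12 with 100 mmol/L HEPES and 1 mmol/L IBMX (diluent concentrations) for 30 min. Cells lysed 30 min at 37 °C; cAMP quantified by cAMP-Screen immunoassay.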

Series [4] concerns the target T1, human α1A-adrenergic receptor. In words: Test Case 4-B: human α1A-adrenergic receptor agonist activity (Cerep cellular functional GPCR, alpha 1A). Also noted: expressed in transfected cells. To be noted: concentration 10 μM; for α1 receptor % of Control Agonist Response, Control; Epinephrine: epinephrine = 100%; for α1 receptor % of Control Agonist Response, Control; Norepinephrine: norepinephrine = 100%. In kind it is cell-based. The text has this:
Measurement of Human α1A-Adrenergic Receptor Agonist Activity
The human α1A-adrenergic receptor agonist activity] can be measured by […] Functional GPCR·Gs, alpha 1A (Ref. 722-36a) listed on p. 52 of the Cerep 2008 CATALOG IN VITRO PHARMACOLOGY & ADME-TOX.

The target in series [5] is T4, human β2-adrenergic receptor (Homo sapiens, UniProt P07550).
T4 construct: expressed in transfected cells; host or cells: CHO (Chinese hamster ovary) cells, pcDNA3
T4 sequence (P07550 whole entry): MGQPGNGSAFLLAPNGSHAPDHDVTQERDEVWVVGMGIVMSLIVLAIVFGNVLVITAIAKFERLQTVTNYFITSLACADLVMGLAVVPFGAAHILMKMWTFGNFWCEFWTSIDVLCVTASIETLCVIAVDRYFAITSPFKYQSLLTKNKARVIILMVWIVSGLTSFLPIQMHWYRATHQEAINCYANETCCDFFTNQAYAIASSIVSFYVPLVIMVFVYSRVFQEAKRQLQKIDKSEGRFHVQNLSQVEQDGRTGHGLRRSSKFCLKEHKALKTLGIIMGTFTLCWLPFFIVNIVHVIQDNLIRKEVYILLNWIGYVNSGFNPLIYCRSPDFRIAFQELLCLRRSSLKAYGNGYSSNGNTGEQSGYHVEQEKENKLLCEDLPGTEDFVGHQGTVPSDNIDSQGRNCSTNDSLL
In words: Test Case 3-C: human β2-adrenergic receptor agonist activity (Cerep cellular functional GPCR, beta 2). In kind it is cell-based. To be noted: concentration 10 μM, isoproterenol = 100%. An excerpt:
(§2) Measurement of Human β2-Adrenergic Receptor Agonist Activity

The test system of series [6] is pentobarbital-anesthetized rats. Nature of the series: Test Case 9: effects on the blood pressure and heart rate in pentobarbital-anesthetized rats. In kind it is in vivo, rat. To be noted: anesthetized male SD rats, 3 mg/kg intravenous over 30 seconds, maximum change, mean±standard deviation. Here is the method: Effects on the blood pressure and heart rate in pentobarbital-anesthetized rats
The blood pressure and heart rate of rats under pentobarbital anesthesia are measured, and the effects of rapid intravenous administration of the test compound on the blood pressure and heart rate can be studied. After anesthetizing male SD rats (Japan SLC) by intraperitoneal administration of 50 mg/kg of pentobarbital sodium (Tokyo Chemical Industry Co., Ltd.), 25 mg/kg of pentobarbital sodium is administered subcutaneously as maintenance anesthesia. The left femoral vein is exposed and stripped, and a SP10 polyethylene tube filled with saline (connected to a three-way stopcock via a ¼ venous needle) is inserted and left in place in the vein.
The inside of the left thigh is cut, and the femoral artery is exposed and stripped. A polyethylene tube filled with heparinized physiological saline solution (SP31, connected to a three-way stopcock via a Terumo injection needle 22G) is inserted and connected to a pressure transducer. The blood pressure is measured from the pressure transducer via a strain pressure amplifier (AP-641G, Nihon Kohden). The heart rate is measured with the pulse wave of the blood pressure as a trigger via a heart rate counter (AT-601G, Nihon Kohden). The blood pressure, mean blood pressure, and heart rate are output to a recorder and recorded. Furthermore, the mean blood pressure is recorded via the strain pressure amplifier (AP-641G) using the formula {[…]}.
Specifically, 3 mg/mL of test compound is administered rapidly at a volume of 1 mL/kg. The relative value (%) of the values at each point in time versus the mean blood pressure and heart rate before beginning administration are determined for each individual, and the mean±standard deviation of the relative value (%) at the time of the maximum change in each parameter is determined.

Series [7] deals with T2, human β1-adrenergic receptor. In words: Test Case 2-B: human β1-adrenergic receptor agonist activity. In kind it is cell-based. To be noted: for Emax: read-out: β1 receptor I.A. Here is the method:
as §1
The human β1-adrenergic receptor agonist activity is measured by the same method as in Test Case 1-B using CHO (Chinese hamster ovary) cells transfected by a human β1 gene inserted in pcDNA3 (Invitrogen).

The target in series [8] is T4, human β2-adrenergic receptor. In words: Test Case 3-B: human β2-adrenergic receptor agonist activity. To be noted: for Emax: read-out: β2 receptor I.A. In kind it is cell-based. Here is the method: as §2
The human β2-adrenergic receptor agonist activity is measured by the same method as in Test Case 1-B using CHO (Chinese hamster ovary) cells transfected by a human β2 gene inserted in pcDNA3 (Invitrogen).

As usually defined, the EC50 is the concentration needed to bring the measured effect to its halfway point. A lower EC50 goes with greater potency.

T3 sequence (P13945 whole entry): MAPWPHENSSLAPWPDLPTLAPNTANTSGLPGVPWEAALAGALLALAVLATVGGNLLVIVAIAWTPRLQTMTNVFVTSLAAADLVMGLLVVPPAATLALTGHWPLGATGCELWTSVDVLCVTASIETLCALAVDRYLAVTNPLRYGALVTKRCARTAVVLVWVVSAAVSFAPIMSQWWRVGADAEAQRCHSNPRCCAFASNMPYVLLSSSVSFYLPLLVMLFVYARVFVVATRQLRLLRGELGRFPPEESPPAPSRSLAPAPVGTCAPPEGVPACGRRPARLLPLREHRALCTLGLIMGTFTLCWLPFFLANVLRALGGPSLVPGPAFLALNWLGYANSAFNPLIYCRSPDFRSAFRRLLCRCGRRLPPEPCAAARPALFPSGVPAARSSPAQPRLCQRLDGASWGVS
T2 sequence (P08588 whole entry): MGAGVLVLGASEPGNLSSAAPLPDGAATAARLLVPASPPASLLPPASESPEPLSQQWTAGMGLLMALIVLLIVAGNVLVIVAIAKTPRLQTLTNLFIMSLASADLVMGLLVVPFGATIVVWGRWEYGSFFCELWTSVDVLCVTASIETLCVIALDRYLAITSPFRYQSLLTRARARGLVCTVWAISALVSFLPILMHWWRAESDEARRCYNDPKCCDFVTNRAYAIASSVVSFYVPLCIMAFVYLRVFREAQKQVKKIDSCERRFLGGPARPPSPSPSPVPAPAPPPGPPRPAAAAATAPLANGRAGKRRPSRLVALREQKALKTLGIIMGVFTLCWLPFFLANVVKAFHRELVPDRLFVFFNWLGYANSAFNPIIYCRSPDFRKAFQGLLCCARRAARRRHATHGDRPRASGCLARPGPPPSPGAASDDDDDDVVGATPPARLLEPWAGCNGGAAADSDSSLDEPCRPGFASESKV

Turning to `Cc1n[nH]c2cc(OCCNC[C@H](O)c3cccc(NS(=O)(=O)c4c(F)cccc4F)c3)ccc12` [ex71, (R)-2,6-difluoro-N-(3-(1-hydroxy-2-(2-(3-methylindazol-6-yloxy)ethylamino)ethyl)phenyl) benzenesulfonamide], the “α1A receptor I.A.” value in series [1] was 2%. The “β1 receptor % of Control Agonist Response” value (“β1 receptor %” for short) in series [2] is given as 32%. In addition, in series [3], the midpoint of the response, the EC50, lay at 152 nM and the “β3 receptor I.A.” value was determined as 96%. In addition, in series [4], the “α1 receptor % of Control Agonist Response, Control; Epinephrine” value (shortened to “α1 receptor % … Control; Epinephrine”) stood at 4.3% and the “α1 receptor % of Control Agonist Response, Control; Norepinephrine” value (“α1 receptor % … Norepinephrine” below) worked out at 3.7%. In addition, in series [5], the “β2 receptor % of Control Agonist Response” value (shortened to “β2 receptor %”) is reported as 1.5%.

For `Cc1n[nH]c2cc(OCCNC[C@H](O)c3cccc(NS(=O)(=O)c4cc(F)ccc4F)c3)ccc12` [ex72, (R)-2, ? -difluoro-N-(3-(1-hydroxy-2-(2-(3-methylindazol-6-yloxy)ethylamino)ethyl)phenyl) benzenesulfonamide], the Emax in series [1] turned out to be 1%. Moreover, the “β1 receptor %” value in series [2] was found to be 19%. In addition, in series [3], the Emax was 92% and a half-maximal response (EC50) required 8.3 nM. Moreover, in series [4], the “α1 receptor % … Control; Epinephrine” value was found to be 6.8% and the “α1 receptor % … Norepinephrine” value is reported as 5.9%. Moreover, the “β2 receptor %” value in series [5] turned out to be 1.8%.

For the compound `COc1n[nH]c2cc(OCCNC[C@H](O)c3cccc(NS(=O)(=O)c4cccnc4F)c3)ccc12` [ex24, (R)-2-fluoro-N-(3-(1-hydroxy-2-(2-(3-methoxyindazol-6-yloxy)ethylamino)ethyl)phenyl)pyridine-3-sulfonamide], the “β1 receptor %” value in series [2] is recorded as 6.1%. The Emax in series [3] came to 41%. In series [4], the “α1 receptor % … Control; Epinephrine” value stood at 5.6% and the “α1 receptor % … Norepinephrine” value came out at 4.8%. Besides, in series [5], the “β2 receptor %” value is listed as 1.2%.

With `O=S(=O)(Nc1cccc([C@@H](O)CNCCOc2ccc3c(OC(F)F)n[nH]c3c2)c1)c1ccccc1F` [ex107, (R)-N-(3-(2-(2-(3-(difluoromethoxy)-indazol-6-yloxy)ethylamino)-1-hydroxyethyl)phenyl)-2-fluorobenzene-sulfonamide], the Emax in series [1] is 1%. For the same compound, the “β1 receptor %” value in series [2] was 8.7%. Also, in series [3], the Emax stood at 75% and the EC50 came to 101 nM. In series [4], the “α1 receptor % … Control; Epinephrine” value amounted to 17% and the “α1 receptor % … Norepinephrine” value is given as 14%. The “β2 receptor %” value in series [5] is reported as −0.6%.

As for `Cc1n[nH]c2cc(OCCNC[C@H](O)c3cccc(NS(=O)(=O)c4cn[nH]c4)c3)ccc12` [ex82, (R)-N-(3-(1-hydroxy-2-(2-(3-methylindazol-6-yloxy)ethylamino)ethyl)phenyl)py-razole-4-sulfonamide], in series [6], the “increase in MBP (%)” value is given as 5.7 ± 0.8%. The Emax came out at 13% in series [1], 7% in series [7], 71% in series [3] and 2% in series [8]. In series [3], this compound gave an EC50 of 16 nM.

As for `COc1n[nH]c2cc(OCCNC[C@H](O)c3cccc(NS(=O)(=O)c4cccc(N)c4)c3)ccc12` [ex41, (R)-3-amino-N-(3-(1-hydroxy-2-(2-(3-methoxyindazol-6-yloxy)ethylamino)ethyl)phenyl) benzenesulfonamide], the “increase in MBP (%)” value in series [6] is 5.7 ± 0.8%. The “α1A receptor I.A.” value in series [1] is reported as 0%. Moreover, the “β1 receptor I.A.” value in series [7] (Test Case 2-B, maximum response of isoproterenol = 100%) came out at 12%. In series [3], the response was half-maximal at 0.21 nM (EC50) and the “β3 receptor I.A.” value worked out at 76%. For the same compound, the “β2 receptor I.A.” value in series [8] (Test Case 3-B, maximum response of isoproterenol = 100%) was found to be 5%.

Consider `COc1n[nH]c2cc(OCCNC[C@H](O)c3cccc(NS(=O)(=O)c4ccsc4)c3)ccc12` [ex11, (R)-N-(3-(1-hydroxy-2-(2-(3-methoxyindazol-6-yloxy)ethylamino)ethyl)phenyl) thiophene-3-sulfonamide], for which the “increase in MBP (%)” value in series [6] (3 mg/kg) is given as 6.1 ± 3.7%. The Emax is 0% in series [1], 3% in series [7], 115% in series [3] and 3% in series [8]. For the same compound, the concentration giving a half-maximal response (EC50) in series [3] came to 3.2 nM.

With `COc1n[nH]c2cc(OCCNC[C@H](O)c3cccc(NS(=O)(=O)c4cccs4)c3)ccc12` [ex2, (R)—N-(3-(1-hydroxy-2-(2-(3-methoxyindazol-6-yloxy)ethylamino)ethyl)phenyl)thiophene-2-sulfonamide], the “increase in MBP (%)” value in series [6] (3 mg/kg) stood at 4.9 ± 0.9%. In addition, the Emax in series [1] turned out to be 0%; in series [7] it was 6%; in series [3], 109%; in series [8], 3%. The same compound registered an EC50 in series [3] of 3.5 nM.

For `O=S(=O)(Nc1cccc([C@@H](O)CNCCOc2ccc3c(Cl)n[nH]c3c2)c1)c1ccccc1F` [ex158, (R)-N-(3-(2-(2-(3-chloroindazol-6-yloxy)ethylamino)-1-hydroxyethyl)phenyl)-2-fluorobenzene-sulfonamide], the Emax in series [1] stood at 0%. The “β1 receptor %” value in series [2] is listed as 17%. Besides, in series [3], the Emax was 90% and the concentration giving a half-maximal response (EC50) turned out to be 62 nM. Further, in series [4], the “α1 receptor % … Control; Epinephrine” value is 7.8% and the “α1 receptor % … Norepinephrine” value was 6.7%. In series [5], the “β2 receptor %” value came to 1.6%.

Consider `Cc1n[nH]c2cc(OCCNC[C@H](O)c3cccc(NS(=O)(=O)c4cccnc4F)c3)ccc12` [ex86], for which, in series [2], the “β1 receptor %” value was determined as 8.8%. In addition, in series [3], the EC50 stood at 401 nM and the “β3 receptor I.A.” value is recorded as 80%. Also, in series [4], the “α1 receptor % … Control; Epinephrine” value is −0.4% and the “α1 receptor % … Norepinephrine” value was −0.3%. For the same compound, the “β2 receptor %” value in series [5] is recorded as −0.7%.
